Here are results for 66 molecules from patent US8575203B2, “Chemical compounds” (Boehringer Ingelheim International GmbH, priority 2010, dated 2013).

One may read the IC50 as the concentration needed to halve the response being measured.

Chain of Recombinant human PDK1 enzyme (aa 52-556) (O15530 52-556): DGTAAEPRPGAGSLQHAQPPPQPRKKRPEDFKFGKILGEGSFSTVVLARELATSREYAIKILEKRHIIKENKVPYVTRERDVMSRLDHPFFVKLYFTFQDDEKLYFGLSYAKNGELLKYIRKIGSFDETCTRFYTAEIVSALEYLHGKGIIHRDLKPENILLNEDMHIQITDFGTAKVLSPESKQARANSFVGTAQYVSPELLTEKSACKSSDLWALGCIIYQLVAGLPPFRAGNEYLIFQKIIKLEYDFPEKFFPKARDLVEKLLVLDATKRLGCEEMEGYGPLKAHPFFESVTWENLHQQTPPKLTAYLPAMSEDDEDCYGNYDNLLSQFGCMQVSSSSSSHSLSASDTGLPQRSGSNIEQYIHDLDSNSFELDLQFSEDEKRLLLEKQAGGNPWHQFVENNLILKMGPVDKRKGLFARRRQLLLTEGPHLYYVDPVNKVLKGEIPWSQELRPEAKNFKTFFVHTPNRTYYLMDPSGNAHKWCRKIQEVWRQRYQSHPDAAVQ

The assay addresses Recombinant human PDK1 enzyme (aa 52-556) (Homo sapiens (Human), UniProt O15530). Nature of the assay: PDK1 kinase assay. Type of assay: biochemical. The conditions noted are these: in vitro kinase assay, His6-PDK1 (aa 52-556), PDKtide, P33-ATP. A digest of the protocol: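 His6-tagged human PDK1 (aa 52-556) from baculovirus-infected insect cells, 3.33 ng/well, with 25 μM PDKtide in Tris pH 7.5/10 mM Mg-acetate. Compound (from 10 μM, 1:5 steps) was preincubated 30 min at RT, then 25 μM ATP solution with γ-33P-ATP was added for 90 min at RT. Phosphoric-acid-precipitated 33P was counted on filters.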
`CN1CCC[C@@H](COc2ccnc3ccc(C#CCNC(=O)c4cccn(C(CO)c5cc(F)c(F)c(F)c5)c4=O)cc23)C1` (stereo partly drawn) [I-125.21]: the IC50 worked out at 0.002 µM. Then `CN(C)CCNc1ccnc2ccc(C#CCNC(=O)c3cncn(Cc4ccc(F)c(F)c4)c3=O)cc12` [I-117], with 1 µM; and `CCN1CCC(Nc2cnc3ccc(C#CCNC(=O)c4cccn([C@H](CO)c5cccc(F)c5)c4=O)cc3c2)CC1` [I-76], with 0.002 µM; and `Cc1c(C#CCNC(=O)c2cncn(Cc3ccc(F)c(F)c3)c2=O)ccc2ncc(C(=O)O)cc12` [I-83], with 0.062 µM. Regarding `CN(c1ncnc2ccc(C#CCNC(=O)c3cncn(Cc4ccc(F)c(F)c4)c3=O)cc12)C1CCCCC1` [II-22], the half-maximal inhibitory concentration (IC50) worked out at 0.371 µM. With `CC(c1cc(F)c(F)c(F)c1)n1cccc(C(=O)NCC#Cc2ccc3nccc(OC[C@H]4CCN(C)C4)c3c2)c1=O` (stereo partly drawn) [I-125.11] the figure was 0.004 µM; with `CCN(CC)c1ncnc2ccc(C#CCNC(=O)c3cccn([C@H](CO)c4ccccc4)c3=O)cc12` [II-56], 0.006 µM. `CNc1ncnc2ccc(C#CCNC(=O)c3cccn(Cc4ccc(F)c(F)c4)c3=O)c(C)c12` [I-3]: the half-maximal inhibitory concentration (IC50) amounted to 0.008 µM. Then `CN(C)CCNc1ncnc2ccc(C#CCNC(=O)c3cncn(Cc4ccc(F)c(F)c4)c3=O)cc12` [II-10], with 0.229 µM; and `CC(c1ccc(F)c(F)c1)n1cccc(C(=O)NCC#Cc2ccc3nccc(OCCCN(C)C)c3c2)c1=O` (stereo not drawn) [I-124], with 0.002 µM; and `O=C(NCC#Cc1ccc2ncc(NC3CCN(C4COC4)CC3)nc2c1)c1ccnn(Cc2ccc(F)c(F)c2)c1=O` [I-54], with 0.008 µM. As to `CN(C)CC(C)(C)CNc1cnc2ccc(C#CCNC(=O)c3cncn(Cc4ccc(F)c(F)c4)c3=O)cc2n1` [I-25], the IC50 is 0.042 µM.

Consider `COCCN1CCC(Nc2cnc3ccc(C#CCNC(=O)c4cccn([C@@H](C)c5ccc(F)c(F)c5)c4=O)cc3n2)CC1` [I-52], for which the IC50 was 0.004 µM. Then `C[C@H](c1ccc(F)c(F)c1)n1cccc(C(=O)NCC#Cc2ccc3ncc(NC4CCN(C)CC4)nc3c2)c1=O` [I-30], with 0.002 µM. With `O=C(NCC#Cc1ccc2ncc(N[C@H]3CC[C@H](N4CCN(CC5CC5)CC4)CC3)nc2c1)c1cccn([C@H](CO)c2cccc(F)c2)c1=O` [I-61] the figure was 0.002 µM. On to `CC(C)Nc1c(C#N)cnc2ccc(C#CCNC(=O)c3cccn(Cc4ccc(F)c(F)c4)c3=O)cc12` [II-104], for which the half-maximal inhibitory concentration (IC50) amounted to 0.147 µM. In the case of `O=C(NCC#Cc1ccc2ncc(N[C@H]3CC[C@H](N4CCN(CC5CC5)CC4)CC3)nc2c1)c1ccnn(Cc2ccc(F)c(F)c2)c1=O` [I-62], the IC50 turned out to be 0.002 µM. Regarding `C[C@@H](c1ccc(F)c(F)c1)n1cccc(C(=O)NCC#Cc2ccc3ncc(NC4CCN(C5COC5)CC4)nc3c2)c1=O` [I-58], the IC50 is 0.008 µM. With `CN1CCC(Oc2ccnc3ccc(C#CCNC(=O)c4cncn(Cc5ccc(F)c(F)c5)c4=O)cc23)CC1` [I-111] the figure was 0.029 µM. With `O=C(NCC#Cc1ccc2nccc(OCC3CCNC3)c2c1)c1cncn(Cc2ccc(F)c(F)c2)c1=O` (stereo not drawn) [I-122], the half-maximal inhibitory concentration (IC50) worked out at 0.003 µM. Then `O=C(NCC#Cc1ccc2nccc(OCC3CCCO3)c2c1)c1cncn(Cc2ccc(F)c(F)c2)c1=O` (stereo not drawn) [I-121], with 0.156 µM. With `O=C(NCC#Cc1ccc2nccc(OCC3CCCOC3)c2c1)c1cccn(Cc2ccc(F)c(F)c2)c1=O` (stereo not drawn) [I-125.8] the figure was 0.046 µM. On to `CCN(CC)c1ncnc2ccc(C#CCNC(=O)c3cccn([C@@H](C)c4ccccc4)c3=O)cc12` [II-55], for which the half-maximal inhibitory concentration (IC50) amounted to 0.06 µM. With `O=C(NCC#Cc1ccc2ncc(NC3CC(N4CCCC4)C3)nc2c1)c1cncn(Cc2ccc(F)c(F)c2)c1=O` (stereo not drawn) [I-29] the figure was 0.041 µM; with `O=C(CNc1ncnc2ccc(C#CCNC(=O)c3cncn(Cc4ccc(F)c(F)c4)c3=O)cc12)c1ccccc1` [II-16], 0.218 µM. With `CN(C)CCCCOc1ccnc2ccc(C#CCNC(=O)c3cncn(Cc4ccc(F)c(F)c4)c3=O)cc12` [I-125.3] the figure was 0.005 µM; with `CN(c1ncnc2ccc(C#CCNC(=O)c3cncn(Cc4ccc(F)c(F)c4)c3=O)cc12)C1CC1` [II-20], 0.013 µM; with `CNc1ncnc2ccc(C#CCNC(=O)c3cc(OC)nn(Cc4ccc(F)c(F)c4)c3=O)cc12` [II-59], 0.009 µM. With `O=C(NCC#Cc1ccc2ncc(NC3CCN(C4COC4)CC3)nc2c1)c1cccn(Cc2ccc(F)c(F)c2)c1=O` [I-57] the figure was 0.009 µM; with `CCN(CC)CCCOc1ccnc2ccc(C#CCNC(=O)c3cncn(Cc4ccc(F)c(F)c4)c3=O)cc12` [I-125.13], 0.006 µM. In the case of `N#Cc1cnc2ccc(C#CCNC(=O)c3cccn(Cc4ccc(F)c(F)c4)c3=O)cc2c1NCC1CCCCC1` [II-97], the 50% inhibitory concentration (IC50) amounted to 1.05 µM. With `Cc1c(C#CCNC(=O)c2cncn(Cc3ccc(F)c(F)c3)c2=O)ccc2ncc(-c3ccccc3)cc12` [I-79] the figure was 0.08 µM; with `CN1CCC[C@@H](COc2ccnc3ccc(C#CCNC(=O)c4cccn(Cc5cc(F)c(F)c(F)c5)c4=O)cc23)C1` [I-125.17], 0.002 µM; with `COCCN1CCC(Nc2cnc3ccc(C#CCNC(=O)c4cncn(Cc5ccc(F)c(F)c5)c4=O)cc3c2)CC1` [I-73], 0.004 µM. Regarding `CN1CCC(NC(=O)c2cnc3ccc(C#CCNC(=O)c4cncn(Cc5ccc(F)c(F)c5)c4=O)cc3c2)C1` (stereo not drawn) [II-87], the IC50 was 0.024 µM.

With `CN(C)CCOc1ccnc2ccc(C#CCNC(=O)c3cncn(Cc4ccc(F)c(F)c4)c3=O)cc12` [I-99], the IC50 is 0.036 µM. `CC(C)=Cc1cnc2ccc(C#CCNC(=O)c3cncn(Cc4ccc(F)c(F)c4)c3=O)cc2n1` [I-68]: the IC50 is 0.233 µM. With `O=C(NCC#Cc1ccc2nccc(C3=CCNCC3)c2c1)c1cncn(Cc2ccc(F)c(F)c2)c1=O` [II-90] the figure was 0.086 µM; with `COc1ncnc2ccc(C#CCNC(=O)c3cncn(Cc4ccc(F)c(F)c4)c3=O)cc12` [I-2], 0.037 µM; with `O=C(NCC#Cc1ccc2nccc(OC[C@@H]3CCCN(CCN4CCOCC4)C3)c2c1)c1cccn(Cc2cc(F)c(F)c(F)c2)c1=O` [I-125.19], 0.003 µM. Then `CN(Cc1cnn(-c2ccc(F)cc2)c1)c1ncnc2ccc(C#CCNC(=O)c3cccn(Cc4ccc(F)c(F)c4)c3=O)cc12` [II-44], with 0.04 µM. Then `COCCN1CCC(Nc2cnc3ccc(C#CCNC(=O)c4cncn(Cc5ccc(F)c(F)c5)c4=O)cc3n2)CC1` [I-37], with 0.005 µM. Consider `O=C(NCC#Cc1ccc2nccc(OCC3CCOCC3)c2c1)c1cncn(Cc2ccc(F)c(F)c2)c1=O` [I-125.6], for which the IC50 amounted to 0.026 µM. For the molecule `CN(c1ccccc1)c1ncnc2ccc(C#CCNC(=O)c3cncn(Cc4ccc(F)c(F)c4)c3=O)cc12` [II-48], the IC50 worked out at 0.015 µM. As to `CCN1CCC(Nc2cnc3ccc(C#CCNC(=O)c4cccn([C@@H](C)c5ccc(F)c(F)c5)c4=O)cc3c2)CC1` [I-75], the IC50 is 0.001 µM.

Regarding `CNc1ncnc2ccc(C#CCNC(=O)c3cncn(Cc4ccc(F)c(F)c4)c3=O)cc12` [II-1], the IC50 was found to be 0.012 µM. With `CN1CCCC1CCNc1ncnc2ccc(C#CCNC(=O)c3cccn(Cc4ccc(F)c(F)c4)c3=O)cc12` (stereo not drawn) [II-39] the figure was 0.137 µM. Then `CCN1CCN(C(=O)c2cnc3ccc(C#CCNC(=O)c4cncn(Cc5ccc(F)c(F)c5)c4=O)cc3c2)CC1` [II-78], with 0.402 µM; and `CN1CCC(Oc2cnc3ccc(C#CCNC(=O)c4cncn(Cc5ccc(F)c(F)c5)c4=O)cc3n2)CC1` [I-38], with 0.056 µM. Regarding `CN(C)CCCOc1ccnc2ccc(C#CCNC(=O)c3cccn(C(CO)c4ccc(F)c(F)c4)c3=O)cc12` (stereo not drawn) [I-125], the IC50 worked out at 0.002 µM. Regarding `CNc1c([N+](=O)[O-])cnc2ccc(C#CCNC(=O)c3cncn(Cc4ccc(F)c(F)c4)c3=O)cc12` [I-127], the IC50 was 0.098 µM. Consider `CN(C)CCCOc1ccnc2ccc(C#CCNC(=O)c3cccn(Cc4cc(F)c(F)c(F)c4)c3=O)cc12` [I-125.2], for which the IC50 came to 0.005 µM. `Cc1c(C#CCNC(=O)c2cncn(Cc3ccc(F)c(F)c3)c2=O)ccc2ncc(C(=O)N(C)C)cc12` [II-70]: the IC50 came to 0.185 µM. Then `O=C(NCC#Cc1ccc2nccc(-c3cn[nH]c3)c2c1)c1cncn(Cc2ccc(F)c(F)c2)c1=O` [II-89], with 0.035 µM; and `CC(C)NC(=O)c1cnc2ccc(C#CCNC(=O)c3cncn(Cc4ccc(F)c(F)c4)c3=O)cc2c1` [II-77], with 0.053 µM. As for `O=C(NCC#Cc1ccc2ncc(C(=O)N3CCOCC3)cc2c1)c1cncn(Cc2ccc(F)c(F)c2)c1=O` [II-82], the IC50 is 0.531 µM.

Consider `CN(C)C(=O)c1cnc2ccc(C#CCNC(=O)c3cncn(Cc4ccc(F)c(F)c4)c3=O)cc2c1` [II-86], for which the IC50 came to 0.355 µM. With `O=C(NCC#Cc1ccc2nccc(OC3CCNCC3)c2c1)c1cncn(Cc2ccc(F)c(F)c2)c1=O` [I-113] the figure was 0.015 µM; with `CN1CCC(Nc2cnc3ccc(C#CCNC(=O)c4cncn(Cc5ccc(F)c(F)c5)c4=O)cc3n2)C1` (stereo not drawn) [I-16], 0.033 µM; with `CN1CC(NC(=O)c2cnc3ccc(C#CCNC(=O)c4cncn(Cc5ccc(F)c(F)c5)c4=O)cc3c2)C1` [II-81], 0.02 µM.

Take `CCOc1ncnc2ccc(C#CCNC(=O)c3cncn(Cc4ccc(F)c(F)c4)c3=O)cc12` [I-7]: the IC50 worked out at 0.094 µM. With `O=C(NCC#Cc1ccc2ncc(N[C@H]3CC[C@H](N4CCOCC4)CC3)nc2c1)c1cccn([C@H](CO)c2cccc(F)c2)c1=O` [I-64] the figure was 0.005 µM; with `NC(=O)CCNc1ncnc2ccc(C#CCNC(=O)c3cccn(Cc4ccc(F)c(F)c4)c3=O)cc12` [II-33], 0.079 µM. With `CN(C)c1c(C#N)cnc2ccc(C#CCNC(=O)c3cccn(Cc4ccc(F)c(F)c4)c3=O)cc12` [II-94] the figure was 0.027 µM; with `CC(C)N1CCC[C@@H](COc2ccnc3ccc(C#CCNC(=O)c4cccn(Cc5ccc(F)c(F)c5)c4=O)cc23)C1` [I-125.22], 0.003 µM; with `O=C(NCC#Cc1ccc2ncnc(NC3CCN(CCO)CC3)c2c1)c1cncn(Cc2ccc(F)c(F)c2)c1=O` [II-24], 0.077 µM.
